Reference: patent US20020025347A1, “Treatment of diabetic nephropathy and microalbuminuria” (Shiva Biomedical, LLC, priority 1999, published 2002)
“Also recorded” adds a separate entry of the source. Counter-ions that a name gives are not always drawn.

Assays:
[1] = system: fibronectin; assay: High glucose-induced fibronectin synthesis and secretion from mesangial cells (Western blot); format: cell-based, Murine; conditions: MES-13 cells, 30 mM glucose, 50 μg/mL
Method: (§1) Murine renal mesangial cells were used in these experiments. The mesangial cells (MES-13) were cloned from transgenic mice. The twenty-fifth passage of the originally plated cells was used in the experiments. MES-13 cells were grown in Dulbecco's Modified Eagle's Medium (DMEM) containing 15% fetal bovine serum (FBS), 1% streptomycin-penicillin mixture, fungizone 0.2 μg/mL, 44 mM NaHCO3 and 14 mM HEPES at 37° C. in a humid atmosphere containing 5% CO2 and 95% air. Subcultures were seeded from confluent stock cultures by trypsinization in Hanks balanced salt solution containing 0.5 mM EDTA and 0.025% trypsin and grown in DMEM containing 15% FBS for 24 hr to near confluence (80%). Near confluent cells were incubated with serum-free DMEM to arrest cell growth and synchronize cell cultures. After 24 hr, the media was changed to serum-free DMEM containing 5.5 mM (normal) or 30 mM (high) glucose and cells cultured for 5 days. Cells were then incubated with a salt of lithospermic acid at 25 μg/mL or 50 μg/mL for 24 hours. […] Protein concentration in cell lysate and culture media samples was determined by the method of Lowry with BSA as a standard (Lowry, O. H., et al., J. Biol. Chem. 193:265-275 (1951)). […] After washing, the antigen-antibody complexes were detected by enhanced chemiluminesence (Amersham International, England) and quantitated densitometry.

[2] = system: MEK2; assay: High glucose-induced phosphorylation of MEK in mesangial cells (Western blot); format: cell-based, Murine; conditions: MES-13 cells
Method: as §1

[3] = system: STZ-induced diabetic rats; assay: Treatment of STZ-induced diabetic rats with a salt of lithospermic acid; format: in vivo, Sprague-Dawley rats
Method: Sprague-Dawley rats (3-4 months of age, 250-300 g) were housed individually in sterile microisolator cages in a Specific Pathogen Free animal care facility. Rats were fed standard Rat chow and water was available ad libitum. Animals were maintained in temperature (25° C.) and humidity (40%) controlled rooms with a 12-h light/12 h dark cycle. Rats were randomly assigned to three experimental groups: Group I, nondiabetic control (n=10), Group II, untreated diabetic (n=10); and Group III, salt of lithospermic acid-treated diabetic (n=10). Insulin dependent diabetes was induced by a single intravenous injection of freshly prepared streptozotocin (STZ) (50 mg/kg in 0.1 M citrate buffer, pH 4.5) (Schmidt, R. E., et al., Diabetes 45(3):284-290 (1996)). A rat was considered diabetic when the nonfasting plasma glucose level was greater than about 17 mmol/L, 3 days following injection of STZ. Eight weeks following the administration of STZ, animals were treated with a salt of lithospermic acid by intramuscularly injections once daily (20 mg salt of lithospermic acid/kg body weight) for 8 weeks. Body weights were recorded weekly before and throughout the treatment period. Twenty-four hour urine and glycosylated hemoglobin levels were determined at 8, 12 and 16 weeks after injection of STZ. Urine samples were centrifuged (3000 rpm for 10 min) and the supernatant analyzed for creatinine and protein levels using standard techniques (Matsuo, Y., et al., Pharmacology 50:1-8 (1995)).

[4] = system: ERK2; assay: High glucose-induced phosphorylation of ERK in mesangial cells (Western blot); format: cell-based, Murine; conditions: MES-13 cells, 30 mM glucose, 50 μg/mL
Method: as §1

[5] = system: protein kinase C (PKC); assay: High glucose-induced protein kinase C activity in mesangial cells; format: cell-based, Murine; conditions: MES-13 cells, 30 mM glucose 5 days, then 25 or 50 μg/mL for 24 hours
Method: Murine renal mesangial cells were used in these experiments. The mesangial cells (MES-13) were cloned from transgenic mice. The twenty-fifth passage of the originally plated cells was used in the experiments. MES-13 cells were grown in Dulbecco's Modified Eagle's Medium (DMEM) containing 15% fetal bovine serum (FBS), 1% streptomycin-penicillin mixture, fungizone 0.2 μg/mL, 44 mM NaHCO3 and 14 mM HEPES at 37° C. in a humid atmosphere containing 5% CO2 and 95% air. Subcultures were seeded from confluent stock cultures by trypsinization in Hanks balanced salt solution containing 0.5 mM EDTA and 0.025% trypsin and grown in DMEM containing 15% FBS for 24 hr to near confluence (80%). Near confluent cells were incubated with serum-free DMEM to arrest cell growth and synchronize cell cultures. After 24 hr, the media was changed to serum-free DMEM containing 5.5 mM (normal) or 30 mM (high) glucose and cells cultured for 5 days. […] The amount of PKC in lysates of cells cultured in presence of high glucose (30 mM) and normal glucose (control, 5.5 mM) was determined using a commercially available kit (Upstate Biotechnology, Lake Placid N.Y.). […] Assay squares were placed into vials and radioactivity determined by scintillation counting. PKC activity was expressed as pmol/min/protein. Significant differences between group means were determined using the unpaired or paired Student's t-test.

[6] = system: TGF-β1; assay: High glucose-induced TGF-β1 secretion from mesangial cells (Western blot); format: cell-based, Murine; conditions: MES-13 cells, 30 mM glucose, 25 or 50 μg/mL for 24 hours
Method: as §1

[7] = treated diabetic rats, 20 mg/kg intramuscularly once daily for 8 weeks

HCT ([3]; treated diabetic rats): 37.44 ± 3.13%
Hb ([3]; treated diabetic rats): 14.44 ± 0.87 g/dL
MCH ([3]; treated diabetic rats): 21.13 ± 0.69 pg
WBC ([3]; treated diabetic rats): 11.95 ± 4.66 × 10(3)
Albumin [3, 7]: 1.75 ± 0.31 g/dL
Bilirubin [3, 7]: 1.14 ± 1.10 mg/dL
Cl [3, 7]: 101.5 ± 2.65 mmol/L
D. Bil [3, 7]: 0.67 ± 0.7 mg/dL
GOT [3, 7]: 239 ± 157 U/L
GPT [3, 7]: 102.75 ± 73.74 U/L
K [3, 7]: 19.53 ± 12.8 mmol/L
Na [3, 7]: 130.3 ± 6.24 mmol/L
Serum Protein [3, 7]: 6.28 ± 0.54 g/dL
Uric Acid [3, 7]: 1.6 ± 1.07 mg/dL
r-GTP [3, 7]: 2.75 ± 2.75 U/L
SMILES: O=C(/C=C/c1ccc(O)c2c1[C@H](C(=O)O)[C@@H](c1ccc(O)c(O)c1)O2)O[C@H](Cc1ccc(O)c(O)c1)C(=O)O [salt of lithospermic acid]
fibronectin levels in high glucose (FIG. 4) [1]: decreased fibronectin levels to about that of control levels
phosphorylated MEK2 (MEK P) in high glucose (FIG. 7) ([2]; high glucose, 50 μg/mL): approached control levels
total amount of MEK2 (MEK2-T, phosphorylated and nonphosphorylated) (FIG. 8) ([2]; regardless of glucose concentration or treatment): remained constant
effect on blood glucose levels in diabetic rats ([3]; 20 mg/kg intramuscularly once daily for 8 weeks): did not significantly lower blood glucose levels
urinary protein levels (FIG. 1) ([3]; 20 mg/kg intramuscularly once daily for 8 weeks, started 8 weeks after STZ, compared to untreated diabetic and nondiabetic control rats): significantly (p<0.001) lowered urinary protein levels; also recorded: approached the levels observed in control, nondiabetic rats
BUN [3, 7]: 28.1 ± 5.32 mg/dL
Cholesterol [3, 7]: 47 ± 7.35 mg/dL
Creatinine [3, 7]: 0.6 ± 0.12 mg/dL
Glucose [3, 7]: 508.5 ± 160.4 mg/dL
HbAlc ([3]; treated diabetic rats, p < 0.01 vs. control): 8.59 ± 1.59 %
phosphorylated ERK2 in high glucose (FIG. 5) [4]: decrease in phosphorylated ERK2 to about control levels
PKC activity in high glucose (FIG. 2) [5]: decreased PKC activity
TGF-β1 secretion in high glucose (FIG. 3) [6]: decreased high glucose-induced TGF-β1 secretion
